{"source": "paper PMC3663048", "about": "(Journal of medicinal chemistry, 2011)", "key": {"[1]": {"biological_target": "T1, C22V Nek2 (Homo sapiens, UniProt P51955, C22V)", "T1 sequence (P51955 1-445 C22V)": "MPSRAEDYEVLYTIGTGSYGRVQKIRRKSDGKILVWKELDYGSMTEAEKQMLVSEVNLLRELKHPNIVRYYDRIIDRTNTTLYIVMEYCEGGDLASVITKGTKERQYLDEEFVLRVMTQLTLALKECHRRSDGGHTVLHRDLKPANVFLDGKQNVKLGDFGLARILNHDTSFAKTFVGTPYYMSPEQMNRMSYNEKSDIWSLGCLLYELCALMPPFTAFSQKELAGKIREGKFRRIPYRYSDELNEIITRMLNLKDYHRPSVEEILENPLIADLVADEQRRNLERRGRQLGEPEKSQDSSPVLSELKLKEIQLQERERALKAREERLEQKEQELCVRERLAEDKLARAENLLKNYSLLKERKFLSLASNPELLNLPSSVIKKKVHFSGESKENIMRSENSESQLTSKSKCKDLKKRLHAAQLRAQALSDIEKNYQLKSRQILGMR", "assay": "In vitro kinase assay with C22V Nek2", "type": "biochemical", "conditions": "C22V mutant"}, "[2]": {"biological_target": "T2, WT Nek2 kinase domain (aa 1-271) (Homo sapiens, UniProt P51955)", "T2 sequence (P51955 1-271)": "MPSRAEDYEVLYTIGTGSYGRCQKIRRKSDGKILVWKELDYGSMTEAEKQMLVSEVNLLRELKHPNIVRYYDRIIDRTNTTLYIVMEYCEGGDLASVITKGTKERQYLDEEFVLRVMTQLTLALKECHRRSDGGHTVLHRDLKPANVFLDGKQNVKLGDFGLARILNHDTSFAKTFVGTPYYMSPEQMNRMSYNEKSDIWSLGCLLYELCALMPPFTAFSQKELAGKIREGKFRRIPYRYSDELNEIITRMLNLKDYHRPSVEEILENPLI", "assay": "Mass spectrometry-based covalent binding assay, WT Nek2 kinase domain", "conditions": "ten-fold molar excess of compound, physiological pH"}, "[3]": {"biological_target": "T3, Nek2 (Homo sapiens, UniProt P51955)", "T3 sequence (P51955 1-445)": "T1 sequence (P51955 1-445 C22V) with V22C", "assay": "In vitro kinase assay with WT Nek2", "conditions": "for Percent inhibition of Nek2 kinase activity: 5 μM, 30 min pre-incubation; for Potency against WT Nek2 (dose-response): WT Nek2, in vitro kinase assay; for inhibition at 5 µM: read-out: Percent inhibition of Nek2 kinase activity"}, "[4]": {"tested_on": "monastrol-arrested A549 cells", "assay": "Mitotic exit of monastrol-arrested A549 cells", "type": "cell-based, human", "conditions": "45 min; for Phospho-Ser10 histone H3 staining (mitotic marker): 5 μM"}, "[5]": {"biological_target": "T4, endogenous Nek2 (Homo sapiens, UniProt P51955)", "T4 sequence (P51955 1-445)": "T1 sequence (P51955 1-445 C22V) with V22C", "assay": "Immunoprecipitation kinase assay of endogenous Nek2 from treated A549 cells", "type": "cell-based", "conditions": "A549, read-out: Inhibition of cellular Nek2"}}, "note": "Residue numbers refer to the chain shown, from its start.", "data": [{"smiles": "C#CC(=O)Nc1ccc2c(c1)/C(=C/c1ccc[nH]1)C(=O)N2", "note": "[compound 8, (Z)-N-(3-((1H-Pyrrol-2-yl)methylene)-2-oxoindolin-5-yl)propiolamide]", "values": [{"measurement": "Potency against C22V Nek2 compared to WT", "setting": "[1]", "value": "significantly less potent"}, {"measurement": "Alkylation of WT Nek2 kinase domain (ESI-MS)", "setting": "[2]", "value": "alkylated WT Nek2 at a single site"}, {"measurement": "Percent inhibition of Nek2 kinase activity", "setting": "[3]", "value": "nearly complete inhibition"}, {"measurement": "Potency against WT Nek2 (dose-response)", "setting": "[3]", "value": "submicromolar"}, {"measurement": "inhibition at 5 µM", "setting": "[3]", "value": "> 80", "unit": "%"}]}, {"smiles": "C#CC(=O)Nc1ccc2c(c1)/C(=C/c1[nH]cnc1C)C(=O)N2", "note": "[compound 15, (Z)-N-(3-((4-Methyl-1H-imidazol-5-yl)methylene)-2-oxoindolin-5-yl)propiolamide]", "values": [{"measurement": "Phospho-Ser10 histone H3 staining (mitotic marker)", "setting": "[4]", "value": "devoid of this mitotic marker"}, {"measurement": "% mitotic exit (5 μM)", "setting": "[4]; immunofluorescence", "value": 80, "unit": "%"}]}, {"smiles": "CCc1nc(C)c(/C=C2\\C(=O)Nc3ccc(C(=O)CCl)cc32)[nH]1", "note": "[compound 11, (Z)-5-(2-Chloroacetyl)-3-((2-ethyl-4-methyl-1H-imidazol-5-yl)methylene)indolin-2-one]", "values": [{"measurement": "Alkylation of WT Nek2 kinase domain (ESI-MS)", "setting": "[2]", "value": "reacted stoichiometrically"}]}, {"smiles": "CC#CC(=O)Nc1ccc2c(c1)/C(=C/c1[nH]c(CC)nc1C)C(=O)N2", "note": "[compound 18, (Z)-N-(3-((2-Ethyl-4-methyl-1H-imidazol-5-yl)methylene)-2-oxoindolin-5-yl)but-2-ynamide]", "values": [{"measurement": "inhibition at 5 µM", "setting": "[5]", "value": "10 to 25", "unit": "%"}, {"measurement": "IC50", "setting": "[3]", "value": "~20", "unit": "µM"}]}, {"smiles": "O=C1Nc2ccc(C(=O)CCl)cc2/C1=C/c1ccc[nH]1", "note": "[compound 2, (Z)-3-((1H-Pyrrol-2-yl)methylene)-5-(2-chloroacetyl)indolin-2-one]", "values": [{"measurement": "Potency against C22V Nek2 compared to WT", "setting": "[1]", "value": "significantly less potent"}, {"measurement": "Alkylation of WT Nek2 kinase domain (ESI-MS)", "setting": "[2]", "value": "alkylated WT Nek2 at a single site"}, {"measurement": "Potency against WT Nek2 (dose-response)", "setting": "[3]", "value": "submicromolar"}, {"measurement": "inhibition at 5 µM", "setting": "[3]", "value": "> 80", "unit": "%"}]}, {"smiles": "O=C1NC(=NCc2cccs2)S/C1=C\\c1ccc2ncccc2c1", "note": "[compound 19, reference compound]", "values": [{"measurement": "Phospho-Ser10 histone H3 staining (mitotic marker)", "setting": "[4]", "value": "devoid of this mitotic marker"}]}, {"smiles": "C=CC(=O)Nc1ccc2c(c1)/C(=C/c1ccc[nH]1)C(=O)N2", "note": "[compound 7, (Z)-N-(3-((1H-Pyrrol-2-yl)methylene)-2-oxoindolin-5-yl)acrylamide]", "values": [{"measurement": "Percent inhibition of Nek2 kinase activity", "setting": "[3]", "value": "ineffective"}]}]}
